Source: patent publication US9416128B2, “Fused heterocyclic compounds as ion channel modulators” (Gilead Sciences, Inc., priority 2013, dated 2016)

Columns and labels:
hNaV1.2 (SCN2A) = target: T1, hNaV1.2 (SCN2A) (Homo sapiens, UniProt Q99250); experiment: Use-dependent inhibition of the CNS NaV1.2 sodium channel; type: cell-based; details: % inhibition; for inhibition at 1 µM / inhibition at 10 µM: HEK-293, 25 Hz; for inhibition at 1 µM: read-out: Nav1.2 UDB 25 Hz 1 uM; for inhibition at 10 µM: read-out: Nav1.2 UDB 25 Hz 10 uM
T1 construct: expressed in transfected cells
T1 sequence (Q99250 whole entry): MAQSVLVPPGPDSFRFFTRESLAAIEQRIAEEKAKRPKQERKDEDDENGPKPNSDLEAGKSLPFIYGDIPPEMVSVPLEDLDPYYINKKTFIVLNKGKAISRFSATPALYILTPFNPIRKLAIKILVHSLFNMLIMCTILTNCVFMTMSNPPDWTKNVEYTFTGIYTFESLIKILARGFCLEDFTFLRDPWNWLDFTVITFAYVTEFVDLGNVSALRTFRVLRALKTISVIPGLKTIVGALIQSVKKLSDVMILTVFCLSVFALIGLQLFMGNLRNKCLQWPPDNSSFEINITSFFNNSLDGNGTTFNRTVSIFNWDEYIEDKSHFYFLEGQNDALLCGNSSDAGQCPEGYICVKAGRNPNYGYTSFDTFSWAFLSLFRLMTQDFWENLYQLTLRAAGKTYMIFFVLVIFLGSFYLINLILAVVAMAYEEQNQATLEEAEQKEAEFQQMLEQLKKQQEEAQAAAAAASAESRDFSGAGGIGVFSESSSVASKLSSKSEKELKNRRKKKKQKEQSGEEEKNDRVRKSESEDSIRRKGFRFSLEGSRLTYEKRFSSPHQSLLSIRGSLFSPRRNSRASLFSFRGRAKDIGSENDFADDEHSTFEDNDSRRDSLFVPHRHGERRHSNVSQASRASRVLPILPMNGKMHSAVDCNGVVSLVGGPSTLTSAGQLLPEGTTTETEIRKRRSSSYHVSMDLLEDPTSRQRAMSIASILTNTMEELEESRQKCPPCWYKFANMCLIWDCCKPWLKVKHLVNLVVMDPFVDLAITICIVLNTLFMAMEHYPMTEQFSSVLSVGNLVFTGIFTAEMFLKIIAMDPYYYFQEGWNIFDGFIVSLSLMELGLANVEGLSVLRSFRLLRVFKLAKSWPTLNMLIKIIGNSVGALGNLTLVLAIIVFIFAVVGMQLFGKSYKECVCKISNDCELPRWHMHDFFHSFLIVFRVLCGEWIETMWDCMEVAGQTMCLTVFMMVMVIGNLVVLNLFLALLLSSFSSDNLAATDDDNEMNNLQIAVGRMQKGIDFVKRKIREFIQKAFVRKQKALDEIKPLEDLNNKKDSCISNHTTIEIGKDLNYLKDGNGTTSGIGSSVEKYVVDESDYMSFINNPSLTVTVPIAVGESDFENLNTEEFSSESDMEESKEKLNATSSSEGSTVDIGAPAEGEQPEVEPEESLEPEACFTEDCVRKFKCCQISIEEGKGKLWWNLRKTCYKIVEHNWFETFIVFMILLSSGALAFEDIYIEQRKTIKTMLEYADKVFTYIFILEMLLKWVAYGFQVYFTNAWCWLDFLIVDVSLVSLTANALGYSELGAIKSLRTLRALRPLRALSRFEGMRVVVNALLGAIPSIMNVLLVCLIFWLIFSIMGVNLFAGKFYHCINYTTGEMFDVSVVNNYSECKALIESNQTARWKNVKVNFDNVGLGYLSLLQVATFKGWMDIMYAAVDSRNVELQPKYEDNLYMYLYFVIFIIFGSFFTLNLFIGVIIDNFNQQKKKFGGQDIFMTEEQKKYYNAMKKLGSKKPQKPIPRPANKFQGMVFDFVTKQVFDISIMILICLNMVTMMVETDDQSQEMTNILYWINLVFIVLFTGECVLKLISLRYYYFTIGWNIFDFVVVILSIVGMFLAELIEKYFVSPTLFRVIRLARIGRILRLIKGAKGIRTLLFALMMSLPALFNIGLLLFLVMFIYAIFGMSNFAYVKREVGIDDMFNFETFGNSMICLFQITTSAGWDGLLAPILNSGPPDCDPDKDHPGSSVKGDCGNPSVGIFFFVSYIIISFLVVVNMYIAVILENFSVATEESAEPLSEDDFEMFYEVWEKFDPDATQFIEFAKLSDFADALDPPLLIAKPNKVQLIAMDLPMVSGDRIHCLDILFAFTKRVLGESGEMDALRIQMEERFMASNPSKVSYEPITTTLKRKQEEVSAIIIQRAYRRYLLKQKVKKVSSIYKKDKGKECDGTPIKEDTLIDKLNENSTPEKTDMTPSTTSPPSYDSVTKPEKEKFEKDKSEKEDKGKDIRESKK
T1 sequence (Q07699 19-218 partner): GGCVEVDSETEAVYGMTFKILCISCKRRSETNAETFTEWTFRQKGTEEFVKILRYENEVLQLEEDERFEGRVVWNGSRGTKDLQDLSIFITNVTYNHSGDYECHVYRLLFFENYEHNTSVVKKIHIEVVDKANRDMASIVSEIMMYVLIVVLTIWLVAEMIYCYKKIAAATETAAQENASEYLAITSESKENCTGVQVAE
T1 sequence (O60939 30-215 partner): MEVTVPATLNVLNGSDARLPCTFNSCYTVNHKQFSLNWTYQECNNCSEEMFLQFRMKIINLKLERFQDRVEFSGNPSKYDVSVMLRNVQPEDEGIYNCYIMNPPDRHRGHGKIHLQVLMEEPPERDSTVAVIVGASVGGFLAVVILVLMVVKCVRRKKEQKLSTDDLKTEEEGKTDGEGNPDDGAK
Procedure: HEK-293 cells stably expressing wild-type (WT) hNaV1.2 (SCN2A NCBI # NM_021007.2, SCN1B NCBI # NM_001037.4, SCN2B NCBI # NM_004588.2) were used to record INa. Cells are maintained with standard tissue culture procedures and stable channel expression is maintained with 800 ug/mL G418 and 3 ug/mL Puromycin in the culture medium. Unless otherwise noted, all reagents are purchased from Sigma-Aldrich (St Louis, Mo., U.S.A.).
Assays measuring Use-Dependent Block (UDB) of NaV1.2 are performed on an automated electrophysiology platform, QPatch 16X or QPatch HT (Sophion Bioscience, Copenhagen, Denmark), using the whole cell patch clamp technique to measure currents through the cell membrane. Series resistance compensation is set to 100% and series resistance and whole-cell compensation are performed automatically. Currents stored in the Sophion Bioscience Oracle database (Sophion Bioscience, Copenhagen, Denmark). Analysis is performed using QPatch Assay software and data are compiled in Excel 2010 (Microsoft, Seattle, Wash., U.S.A.). The internal (pipette) solution consists of (in mM) 105 CsF, 10 NaF, 20 CsCl, 2 EGTA, 10 HEPES, 10 Dextrose with a pH of 7.35 and osmolarity of 300 mOsmol/kg. The external (bath) solution contains in (mM): 145 NaCl, 4 KCl, 1.8 CaCl2, 1 MgCl2, 10 dextrose, 10 HEPES, with a pH of 7.35 and osmolarity of 310 mOsmol/kg. Experiments are carried out at 23-25° C.
(§1) Compound stocks are routinely made by the Gilead Sample Bank in vials to 10 mM in dimethyl sulfoxide (DMSO). In some cases, when compounds are not soluble in DMSO, they are made in 100% ethanol. Stocks are sonicated as necessary. […]
Cells are allowed to stabilize for 10 min after establishment of the whole-cell configuration before current is measured. The test compound is applied 2 times at 60 second intervals. After the second compound addition, a 200 second wait period was imposed to allow for equilibration. Leak currents are subtracted by using an online P/4 procedure and all currents are low-pass Bessel filtered at 5 kHz and digitized at […].
Results are presented as mean percentage inhibition.
Use-dependent block of NaV1.2 peak current is measured during pulse number 20 of a voltage pulse train (0 mV, 20 ms, 20 pulses, 25 Hz) from a holding potential of −120 mV.
Currents are normalized to the peak current recorded in response to the first pulse in each frequency train. The voltage protocol for UDB was performed in the absence and presence of compound and percentage inhibition was calculated with respect to the compound free condition.
Data analysis is performed using QPatch Assay Software 4.0, and Excel 2002 (Microsoft, Seattle, Wash., U.S.A.).

hNaV1.1 (SCN1A) = hNaV1.1 (SCN1A) (Homo sapiens, UniProt P35498); experiment: Use-dependent inhibition of the CNS NaV1.1 sodium channel; type: cell-based; details: % inhibition; for inhibition at 1 µM / inhibition at 10 µM: 25 Hz; for inhibition at 1 µM: read-out: Nav1.1 UDB 25 Hz 1 uM; for inhibition at 10 µM: read-out: Nav1.1 UDB 25 Hz 10 uM
Procedure: HEK-293 cells stably expressing wild-type (WT) hNaV1.1 (SCN1A, NCBI# AB09354) were obtained from Millipore (Cat. # CYL3009) were used to record INa. Cells are maintained with standard tissue culture procedures and stable channel expression is maintained with 400 ug/mL G418 in the culture medium. Unless otherwise noted, all reagents are purchased from Sigma-Aldrich (St Louis, Mo., U.S.A.).
Assays measuring Use-Dependent Block (UDB) of NaV1.2 are performed on an automated electrophysiology platform, QPatch 16X or QPatch HT (Sophion Bioscience, Copenhagen, Denmark), using the whole cell patch clamp technique to measure currents through the cell membrane. Series resistance compensation is set to 100% and series resistance and whole-cell compensation are performed automatically. Currents stored in the Sophion Bioscience Oracle database (Sophion Bioscience, Copenhagen, Denmark). Analysis is performed using QPatch Assay software and data are compiled in Excel 2010 (Microsoft, Seattle, Wash., U.S.A.).
The internal (pipette) solution consists of (in mM) 105 CsF, 10 NaF, 20 CsCl, 2 EGTA, 10 HEPES, 10 Dextrose with a pH of 7.35 and osmolarity of 300 mOsmol/kg. The external (bath) solution contains in (mM): 145 NaCl, 4 KCl, 1.8 CaCl2, 1 MgCl2, 10 dextrose, 10 HEPES, with a pH of 7.35 and osmolarity of 310 mOsmol/kg. Experiments are carried out at 23-25° C.
as §1
Cells are allowed to stabilize for 10 min after establishment of the whole-cell configuration before current is measured. The test compound is applied 2 times at 60 second intervals. After the second compound addition, a 200 second wait period was imposed to allow for equilibration.
Leak currents are subtracted by using an online P/4 procedure and all currents are low-pass Bessel filtered at 5 kHz and digitized at […].
Use-dependent block of NaV1.2 peak current is measured during pulse number 20 of a voltage pulse train (0 mV, 20 ms, 20 pulses, 25 Hz) from a holding potential of −120 mV. Currents are normalized to the peak current recorded in response to the first pulse in each frequency train. The voltage protocol for UDB was performed in the absence and presence of compound and percentage inhibition was calculated with respect to the compound free condition. Results are presented as mean percentage inhibition and data analysis is performed using QPatch Assay Software 4.0, and Excel 2002 (Microsoft, Seattle, Wash., U.S.A.).

| Structure (SMILES) | inhibition at 1 µM (hNaV1.2 (SCN2A); use-dependent block at 1 uM) | inhibition at 10 µM (hNaV1.2 (SCN2A); use-dependent block at 10 uM) | inhibition at 1 µM (hNaV1.1 (SCN1A); use-dependent block at 1 uM) | inhibition at 10 µM (hNaV1.1 (SCN1A); use-dependent block at 10 uM) | Nav1.2 UDB 25 Hz 1 uM (hNaV1.2 (SCN2A); use-dependent block at 1 uM) | Nav1.2 UDB 25 Hz 10 uM (hNaV1.2 (SCN2A); use-dependent block at 10 uM) | Nav1.1 UDB 25 Hz 1 uM (hNaV1.1 (SCN1A); use-dependent block at 1 uM) | Nav1.1 UDB 25 Hz 10 uM (hNaV1.1 (SCN1A); use-dependent block at 10 uM) |
| --- | --- | --- | --- | --- | --- | --- | --- | --- |
| O=C1Oc2ccc(-c3ccc(C(F)(F)F)cc3)cc2CN1Cc1ccncc1 [Example 2, 3-(pyridin-4-ylmethyl)-6-(4-(trifluoromethyl)phenyl)-3,4-dihydro-2H-benzo[e][1,3]oxazin-2-one] | 19.8% | 28.1% | 9.7% | 22.6% |  |  |  |  |
| COc1cc(OC(F)(F)F)ccc1-c1ccc2c(c1)CN(Cc1nccc(C)n1)C(=O)O2 [Example 31, 6-(2-methoxy-4-(trifluoromethoxy)phenyl)-3-((4-methylpyrimidin-2-yl)methyl)-3,4-dihydro-2H-benzo[e][1,3]oxazin-2-one] | 13.2% | 45.7% | 6% | 53.3% |  |  |  |  |
| Cc1cc(OC(F)(F)F)ccc1-c1ccc2c(c1)CN(Cc1ccccn1)C(=O)O2 [Example 23, 6-(2-methyl-4-(trifluoromethoxy)phenyl)-3-(pyridin-2-ylmethyl)-3,4-dihydro-2H-benzo[e][1,3]oxazin-2-one] | < 5% | 56% | 5.2% | 75.2% |  |  |  |  |
| CC1c2cc(-c3ccc(OC(F)(F)F)cc3)ccc2OC(=O)N1Cc1ncccn1 (centres unmarked) [Example 48, 4-methyl-3-(pyrimidin-2-ylmethyl)-6-(4-(trifluoromethoxy)phenyl)-3,4-dihydro-2H-benzo[e][1,3]oxazin-2-one] |  |  | 32.5% | 73.3% |  |  |  |  |
| O=C1Oc2ccc(-c3ccc(OC(F)(F)F)cc3)cc2CN1Cc1ccccn1 [Example 20, 3-(pyridin-2-ylmethyl)-6-(4-(trifluoromethoxy)phenyl)-3,4-dihydro-2H-benzo[e][1,3]oxazin-2-one] | 30.2% | 69.8% | 29.1% | 82% |  |  |  |  |
| Cc1ccnc(CN2Cc3cc(-c4ccc(OC(F)(F)F)cc4F)ccc3OC2=O)n1 [Example 32, 6-(2-fluoro-4-(trifluoromethoxy)phenyl)-3-((4-methylpyrimidin-2-yl)methyl)-3,4-dihydro-2H-benzo[e][1,3]oxazin-2-one] | 8.1% | 41% | 10.8% | 61.8% |  |  |  |  |
| O=C1Oc2ccc(-c3ccc4c(c3)OC(F)(F)O4)cc2CN1Cc1ncccn1 [Example 26, 6-(2,2-difluorobenzo[d][1,3]dioxol-5-yl)-3-(pyrimidin-2-ylmethyl)-3,4-dihydro-2H-benzo[e][1,3]oxazin-2-one] | 28% | 71.1% | 14.8% | 66.1% |  |  |  |  |
| COc1cc(C(F)(F)F)ccc1-c1ccc2c(c1)CN(Cc1ncc(C)cn1)C(=O)O2 [Example 42, 6-(2-methoxy-4-(trifluoromethyl)phenyl)-3-((5-methylpyrimidin-2-yl)methyl)-3,4-dihydro-2H-benzo[e][1,3]oxazin-2-one] | 13.3% | 47.4% | 11.5% | 47.9% |  |  |  |  |
| COc1cc(OC(F)(F)F)ccc1-c1ccc2c(c1)CN(Cc1ncccn1)C(=O)O2 [Example 1, 6-(2-methoxy-4-(trifluoromethoxy)phenyl)-3-(pyrimidin-2-ylmethyl)-3,4-dihydro-2H-benzo[e][1,3]oxazin-2-one] |  |  |  |  | 7.9% | 37.0% | <5% | 34.4% |
| Cc1csc(CN2Cc3cc(-c4ccc(OC(F)(F)F)c(F)c4)ccc3OC2=O)n1 [Example 53, 6-(3-fluoro-4-(trifluoromethoxy)phenyl)-3-((4-methylthiazol-2-yl)methyl)-3,4-dihydro-2H-benzo[e][1,3]oxazin-2-one] | 32.3% | 73.6% | 52.7% | 87.6% |  |  |  |  |
| O=C1Oc2ccc(-c3ccc(Cl)c(F)c3)cc2CN1Cc1ncccn1 [Example 6, 6-(4-chloro-3-fluorophenyl)-3-(pyrimidin-2-ylmethyl)-3,4-dihydro-2H-benzo[e][1,3]oxazin-2-one] |  |  | 26.7% | 65.2% |  |  |  |  |
| Cc1csc(CN2Cc3cc(-c4ccc(Cl)c(F)c4)ccc3OC2=O)n1 [Example 59, 6-(4-chloro-3-fluorophenyl)-3-((4-methylthiazol-2-yl)methyl)-3,4-dihydro-2H-benzo[e][1,3]oxazin-2-one] | < 5% | 41.2% | 20.7% | 39.9% |  |  |  |  |
| O=C1Oc2ccc(-c3ccc(C(F)(F)F)cc3F)cc2CN1Cc1ncccn1 [Example 36, 6-(2-fluoro-4-(trifluoromethyl)phenyl)-3-(pyrimidin-2-ylmethyl)-3,4-dihydro-2H-benzo[e][1,3]oxazin-2-one] | 19.1% | 55.9% | 22.8% | 68.7% |  |  |  |  |
| O=C1Oc2ccc(-c3ccc(C(F)(F)F)cc3)cc2CN1Cc1ccccn1 [Example 24, 3-(pyridin-2-ylmethyl)-6-(4-(trifluoromethyl)phenyl)-3,4-dihydro-2H-benzo[e][1,3]oxazin-2-one] | 32.7% | 71.4% | 44.9% | 79.6% |  |  |  |  |
| Cc1ccnc(CN2Cc3cc(-c4ccc(OC(F)(F)F)cc4)ccc3OC2=O)n1 [Example 29, 3-((4-methylpyrimidin-2-yl)methyl)-6-(4-(trifluoromethoxy)phenyl)-3,4-dihydro-2H-benzo[e][1,3]oxazin-2-one] | 36.1% | 81.7% | 44.7% | 86.8% |  |  |  |  |
| O=C1Oc2ccc(-c3ccc(OC(F)(F)F)cc3F)cc2CN1Cc1ccccn1 [Example 21, 6-(2-fluoro-4-(trifluoromethoxy)phenyl)-3-(pyridin-2-ylmethyl)-3,4-dihydro-2H-benzo[e][1,3]oxazin-2-one] | < 5% | 59.4% | < 5% | 50.8% |  |  |  |  |
| CC1c2cc(-c3cccc(OC(F)(F)F)c3)ccc2OC(=O)N1Cc1ncccn1 (centres unmarked) [Example 50, 4-methyl-3-(pyrimidin-2-ylmethyl)-6-(3-(trifluoromethoxy)phenyl)-3,4-dihydro-2H-benzo[e][1,3]oxazin-2-one] |  |  | 10.1% | 71.2% |  |  |  |  |
